Key:
[1] = target: TPR-MET fusion protein (MNNGHOS cell line) (Homo sapiens, UniProt P08581); test: C-Met phosphorylation cell-based assay; details: read-out: C-Met cell-based Y1230-34-35 tpr-met inhibition (IC50); MNNGHOS cells; compounds 3 hours prior to cell lysis
Description: This test measures the ability of compounds to inhibit HGF stimulated auto-phosphorylation of the c-Met/HGF receptor itself in a whole cell system.
MNNGHOS cell line expressing TPR-MET fusion protein were purchased from ATCC.
Inhibitor of c-Met formulated as 30 mM stocks in DMSO. For MNNGHOS treatments, cells, compounds were added to tissue culture media at indicated doses for 3 hours prior to cell lysis.
Lysate were separated on 5-20% PAGE-SDS and immunoblots were performed using Immobilon P polyvinylidene difluoride membranes (Amersham) according to the manufacturer's instructions for handling. The blots were washed in Tris-buffered saline with 0.1% Tween 20 detergent (TBST). […] Signal was quantitated by densitometry on Alpha-Imager.

[2] = target: recombinant human c-Met/HGF receptor (Homo sapiens, UniProt P08581); test: In vitro receptor tyrosine kinase assay (DELFIA), c-Met/HGF receptor; details: read-out: C-Met (enz.) (IC50); ATP 10 uM; enzyme 25 nM
Excerpt: These tests measure the ability of compounds to inhibit the enzymatic activity of recombinant human c-Met/HGF receptor and VEGF receptor enzymatic activity.
This construct was used to generate recombinant baculovirus using the Bac-N-Blue™ system according to the manucfacturer's instructions (Invitrogen)
The c-Met IC protein was expressed in Hi-5 cells (Trichoplusia Ni) upon infection with recombinant baculovirus construct. Briefly, Hi-5 cells grown in suspension and maintained in serum-free medium (Sf900 II supplemented with gentamycin) at a cell density of about 2×10^6 cells/ml were infected with the abovementioned viruses at a multiplicity of infection (MOI) of 0.2 during 72 hours at 27° C. with agitation at 120 rpm on a rotary shaker. […] Cell pellets were frozen at −80° C. until purification was performed.
All steps described in cell extraction and purification were performed at 4° C. Frozen Hi-5 cell pellets infected with the C-Met IC recombinant baculovirus were thawed and gently resuspended in Buffer A (20 mM Tris pH 8.0, 10% glycerol, 1 μg/ml pepstatin, 2 μg/ml Aprotinin and leupeptin, 50 μg/ml PMSF, 50 μg/ml TLCK and 10 μM E64, 0.5 mM DTT and 1 mM Levamisole) using 3 mL of buffer per gram of cells. The suspension was Dounce homogenized after which it was centrifuged at 22500 g, 30 min., 4° C. The supernatant (cell extract) was used as starting material for purification of c-Met IC.
The supernatant was loaded onto a QsepharoseFF column (Amersham Biosciences) equilibrated with Buffer B (20 mM Tris pH 8.0, 10% glycerol) supplemented with 0.05M NaCl. […]
Inhibition of c-Met/HGF receptor and VEGFR/KDR was measured in a DELFIA™ assay (Perkin Elmer). […] Phosphorylated product was detected by incubation with Europium-labeled anti-phosphotyrosine MoAb. After washing the plates, bound MoAb was detected by time-resolved fluorescence in a Gemini SpectraMax reader (Molecular Devices).

VEGF receptor KDR = target: T1, VEGF receptor KDR (Homo sapiens, UniProt P35968); test: In vitro receptor tyrosine kinase assay (DELFIA), VEGF receptor KDR; assay type: biochemical; details: ATP 0.6 uM; enzyme 5 nM; read-out: VEGF (enz.) (IC50)
T1 construct: made in house; host or cells: Sf9 cells (Spodoptera frugiperda), recombinant baculovirus
T1 sequence (P35968 806-1356): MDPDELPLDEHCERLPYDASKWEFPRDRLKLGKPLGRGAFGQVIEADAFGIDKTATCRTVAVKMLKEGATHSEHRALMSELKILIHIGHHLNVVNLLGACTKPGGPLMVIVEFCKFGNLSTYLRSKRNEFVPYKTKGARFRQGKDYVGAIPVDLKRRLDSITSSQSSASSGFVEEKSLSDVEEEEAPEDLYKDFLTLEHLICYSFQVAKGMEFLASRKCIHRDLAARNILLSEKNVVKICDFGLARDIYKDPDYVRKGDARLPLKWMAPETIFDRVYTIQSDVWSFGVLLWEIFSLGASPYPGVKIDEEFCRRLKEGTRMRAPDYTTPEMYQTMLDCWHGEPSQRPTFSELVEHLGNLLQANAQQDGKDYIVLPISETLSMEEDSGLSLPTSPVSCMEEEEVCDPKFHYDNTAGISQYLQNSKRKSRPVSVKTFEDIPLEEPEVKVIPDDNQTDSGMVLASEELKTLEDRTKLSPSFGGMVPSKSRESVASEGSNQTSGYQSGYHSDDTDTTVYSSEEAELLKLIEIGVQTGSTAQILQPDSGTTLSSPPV
Excerpt: In the case of VEGF receptor KDR a 1.6-kb cDNA corresponding to the catalytic domain of VEGFR2 or KDR (Genbank accession number AF035121 amino acid 806 to 1356) was cloned into the Pst I site of the pDEST20 gateway vector (Invitrogen) for the production of a GST-tagged version of that enzyme.
The GST-VEGFR2806-1356 protein was expressed in Sf9 cells (Spodoptera frugiperda) upon infection with recombinant baculovirus construct.
The supernatant was loaded onto a GST-agarose column (Sigma) equilibrated with PBS pH 7.3. Following a four column volume (CV) wash with PBS pH 7.3+1% Triton X-100 and 4 CV wash with buffer B (50 mM Tris pH 8.0, 20% glycerol and 100 mM NaCl), bound proteins were step eluted with 5 CV of buffer B supplemented with 5 mM DTT and 15 mM glutathion. […] Final GST-VEGFR2806-1356 protein preparations concentrations were about 0.7 mg/ml with purity approximating 70%.

U87MG = test: In vivo solid tumor disease model, U87MG xenograft; parameters: species or system mice; details: 15 mg/kg once daily, IP, vehicle DMSO, 10 days
Excerpt: This test measures the capacity of compounds to inhibit solid tumor growth.
Tumor xenografts were established in the flank of female athymic CD1 mice (Charles River Inc.), by subcutaneous injection of 1×10^6U87, A431 or SKLMS cells/mouse. Once established, tumors were then serially passaged s.c. in nude mice hosts. Tumor fragments from these host animals were used in subsequent compound evaluation experiments. For compound evaluation experiments female nude mice weighing approximately 20 g were implanted s.c. by surgical implantation with tumor fragments of ˜30 mg from donor tumors. When the tumors were approximately 100 mm^3 in size (˜7-10 days following implantation), the animals were randomized a separated into treatment and control groups. Each group contained 6-8 tumor-bearing mice, each of which was ear-tagged and followed individually throughout the experiment
Mice were weighed and tumor measurements are taken by calipers three times weekly, starting on Day 1. These tumor measurements were converted to tumor volume by the well-known formula (L+W/4)^34/3π. The experiment was terminated when the control tumors reached a size of approximately 1500 mm^3. […] In addition to tumor volumes, body weight of animals were monitored twice weekly for up to 3 weeks.

Sequence of TPR-MET fusion protein (MNNGHOS cell line) (P08581 with tags, fused parts or gaps): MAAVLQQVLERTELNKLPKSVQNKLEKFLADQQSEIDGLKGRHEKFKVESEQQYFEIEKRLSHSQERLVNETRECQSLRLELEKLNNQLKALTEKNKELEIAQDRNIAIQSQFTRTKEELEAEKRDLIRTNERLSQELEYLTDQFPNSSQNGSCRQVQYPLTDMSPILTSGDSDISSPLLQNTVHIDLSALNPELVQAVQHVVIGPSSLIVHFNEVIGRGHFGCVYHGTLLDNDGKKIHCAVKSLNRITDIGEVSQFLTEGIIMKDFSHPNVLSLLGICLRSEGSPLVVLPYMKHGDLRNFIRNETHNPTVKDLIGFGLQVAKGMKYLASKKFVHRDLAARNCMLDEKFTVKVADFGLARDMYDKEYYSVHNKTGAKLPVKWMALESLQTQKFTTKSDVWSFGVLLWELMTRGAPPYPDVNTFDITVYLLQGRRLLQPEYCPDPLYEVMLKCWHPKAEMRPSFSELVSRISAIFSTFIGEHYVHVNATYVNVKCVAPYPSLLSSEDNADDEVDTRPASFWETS
Sequence of recombinant human c-Met/HGF receptor (P08581 1078-1337): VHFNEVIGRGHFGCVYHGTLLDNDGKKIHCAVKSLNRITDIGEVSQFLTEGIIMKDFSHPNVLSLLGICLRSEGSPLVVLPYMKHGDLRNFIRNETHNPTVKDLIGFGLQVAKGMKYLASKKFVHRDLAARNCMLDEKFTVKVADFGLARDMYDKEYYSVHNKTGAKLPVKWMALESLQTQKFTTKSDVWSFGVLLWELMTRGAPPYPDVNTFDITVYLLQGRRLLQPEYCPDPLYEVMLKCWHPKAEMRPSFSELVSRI

Molecule	IC50 [1] [nM]	IC50 [2] [nM]	IC50 (VEGF receptor KDR) [nM]	Tumor Growth Inhibition (%) (U87MG)
CN1CCN(C(=O)c2cc3ncnc(Oc4ccc(NC(=S)NC(=O)Cc5ccccc5)cc4F)c3s2)CC1 [Example 24, 1-(4-(6-(4-N-Methylpiperazylcarbamoyl)thieno[3,2-d]pyrimidin-4-yloxy)-3-fluorophenyl)-3-(2-phenylacetyl)thiourea]	> 500	50 to 250	250 to 500	
O=C(Cc1ccccc1)NC(=S)Nc1ccc(Oc2ccnc3cc(C(=O)N4CCOCC4)sc23)c(F)c1 [Example 3]	50 to 250	50 to 250	250 to 500	
Cn1cnnc1-c1cc2nccc(Oc3ccc(NC(=S)NC(=O)Cc4ccccc4)cc3F)c2s1 [Example 75, N-(3-Fluoro-4-(2-(4-methyl-4H-1,2,4-triazol-3-yl)thieno[3,2-b]pyridin-7-yloxy)phenylcarbamothioyl)-2-phenylacetamide]				d (% TGI in the range of 0-24)
Methyl 2-(1-(4-(2-(carbamoyl)thieno[3,2-b]pyridin-7-yloxy)-3-fluorophenyl)-3-(2-phenylacetyl)thioureido)propanoate [Example 11]	50 to 250	50 to 250	> 500	

— patent publication US8470850B2, “Inhibitors of VEGF receptor and HGF receptor signalling” (MethylGene Inc., priority 2004, dated 2013)
